Measured values: ChEMBL document CHEMBL3352542, “Synthesis, biological evaluation and molecular modeling study of 2-(1,3,4-thiadiazolyl-thio and 4-methyl-thiazolyl-thio)-quinazolin-4-ones as a new class of DHFR inhibitors” (Bioorg Med Chem Lett, 2014)
Active and inactive are the calls of the source.

How the values were obtained:
NCI-H522 = experiment: Growth inhibition of human NCI-H522 cells at 10 uM after 48 hrs; format: functional
UACC-257 = experiment: Growth inhibition of human UACC257 cells at 10 uM after 48 hrs; format: functional
HCT-15 = experiment: Growth inhibition of human HCT15 cells at 10 uM after 48 hrs; format: functional
LOX IMVI = experiment: Growth inhibition of human LOXIMVI cells at 10 uM after 48 hrs; format: functional
HCT-116 = experiment: Growth inhibition of human HCT116 cells at 10 uM after 48 hrs; format: functional
A498 = experiment: Growth inhibition of human A498 cells at 10 uM after 48 hrs; format: functional
Staphylococcus aureus [1] = experiment: Antimicrobial activity against Staphylococcus aureus assessed as inhibition of visible growth after 24 hrs by disc-diffusion method; format: functional, organism-based
SN12C = experiment: Growth inhibition of human SN12C cells at 10 uM after 48 hrs; format: functional
HCC 2998 = experiment: Growth inhibition of human HCC2998 cells at 10 uM after 48 hrs; format: functional
OVCAR-8 = experiment: Growth inhibition of human OVCAR8 cells at 10 uM after 48 hrs; format: functional
NCI-H23 = experiment: Growth inhibition of human NCI-H23 cells at 10 uM after 48 hrs; format: functional
HL-60(TB) = experiment: Growth inhibition of human HL-60(TB) cells at 10 uM after 48 hrs; format: functional
U-251 = experiment: Growth inhibition of human U251 cells at 10 uM after 48 hrs; format: functional
SF-268 = experiment: Growth inhibition of human SF268 cells at 10 uM after 48 hrs; format: functional
Bacillus subtilis [2] = experiment: Antimicrobial activity against Bacillus subtilis assessed as inhibition of visible growth after 24 hrs by disc-diffusion method; format: functional, organism-based
SF-295 = experiment: Growth inhibition of human SF295 cells at 10 uM after 48 hrs; format: functional
Malme-3M = experiment: Growth inhibition of human MALME-3M cells at 10 uM after 48 hrs; format: functional
M14 = experiment: Growth inhibition of human M14 cells at 10 uM after 48 hrs; format: functional
Escherichia coli = experiment: Antimicrobial activity against Escherichia coli assessed as inhibition zone at 200 ug/disk after 24 hrs by disc-diffusion method; format: functional; settings: read-out: IZ
SNB-75 = experiment: Growth inhibition of human SNB75 cells at 10 uM after 48 hrs; format: functional
HOP-92 = experiment: Growth inhibition of human HOP92 cells at 10 uM after 48 hrs; format: functional
786-0 = experiment: Growth inhibition of human 786-0 cells at 10 uM after 48 hrs; format: functional
COLO 205 = experiment: Growth inhibition of human COLO205 cells at 10 uM after 48 hrs; format: functional
CCRF-CEM = experiment: Growth inhibition of human CCRF-CEM cells at 10 uM after 48 hrs; format: functional
TK-10 = experiment: Growth inhibition of human TK10 cells at 10 uM after 48 hrs; format: functional
SR = experiment: Growth inhibition of human SR cells at 10 uM after 48 hrs; format: functional
OVCAR-4 = experiment: Growth inhibition of human OVCAR4 cells at 10 uM after 48 hrs; format: functional
UACC-62 = experiment: Growth inhibition of human UACC62 cells at 10 uM after 48 hrs; format: functional
Candida albicans = experiment: Antimicrobial activity against Candida albicans assessed as inhibition zone at 200 ug/disk after 24 hrs by disc-diffusion method; format: functional; settings: read-out: IZ
K562 = experiment: Growth inhibition of human K562 cells at 10 uM after 48 hrs; format: functional
OVCAR-3 = experiment: Growth inhibition of human OVCAR3 cells at 10 uM after 48 hrs; format: functional
UO-31 = experiment: Growth inhibition of human UO31 cells at 10 uM after 48 hrs; format: functional
Bacillus subtilis [3] = experiment: Antimicrobial activity against Bacillus subtilis assessed as inhibition zone at 200 ug/disk after 24 hrs by disc-diffusion method; format: functional; settings: read-out: IZ
Hs-578T = experiment: Growth inhibition of human Hs 578T cells at 10 uM after 48 hrs; format: functional
MDA-MB-231 = experiment: Growth inhibition of human MDA-MB-231 cells at 10 uM after 48 hrs; format: functional
NCI-H226 = experiment: Growth inhibition of human NCI-H226 cells at 10 uM after 48 hrs; format: functional
T47D = experiment: Growth inhibition of human T47D cells at 10 uM after 48 hrs; format: functional
Dihydrofolate reductase = biological target: T1, Dihydrofolate reductase (Bos taurus, UniProt P00376); experiment: Inhibition of bovine liver DHFR
T1 sequence (P00376 whole entry): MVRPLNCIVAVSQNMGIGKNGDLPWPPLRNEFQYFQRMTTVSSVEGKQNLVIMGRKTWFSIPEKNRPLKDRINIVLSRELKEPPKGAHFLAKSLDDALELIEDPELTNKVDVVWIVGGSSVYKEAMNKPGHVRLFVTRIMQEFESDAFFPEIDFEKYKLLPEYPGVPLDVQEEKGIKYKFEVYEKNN

SF-539 = experiment: Growth inhibition of human SF539 cells at 10 uM after 48 hrs; format: functional
A549 = experiment: Growth inhibition of human A549 cells at 10 uM after 48 hrs; format: functional
BT-549 = experiment: Growth inhibition of human BT549 cells at 10 uM after 48 hrs; format: functional
Staphylococcus aureus [4] = experiment: Antimicrobial activity against Staphylococcus aureus assessed as inhibition zone at 200 ug/disk after 24 hrs by disc-diffusion method; format: functional; settings: read-out: IZ
NCI/ADR-RES = experiment: Growth inhibition of human NCI-ADR-RES cells at 10 uM after 48 hrs; format: functional
PC-3 = experiment: Growth inhibition of human PC3 cells at 10 uM after 48 hrs; format: functional
ACHN = experiment: Growth inhibition of human ACHN cells at 10 uM after 48 hrs; format: functional
SK-MEL-5 = experiment: Growth inhibition of human SK-MEL-5 cells at 10 uM after 48 hrs; format: functional
MDA-MB-468 = experiment: Growth inhibition of human MDA-MB-468 cells at 10 uM after 48 hrs; format: functional
NCI-H460 = experiment: Growth inhibition of human NCI-H460 cells at 10 uM after 48 hrs; format: functional
RPMI-8226 = experiment: Growth inhibition of human RPMI8226 cells at 10 uM after 48 hrs; format: functional
RXF 393 = experiment: Growth inhibition of human RXF393 cells at 10 uM after 48 hrs; format: functional
SNB-19 = experiment: Growth inhibition of human SNB19 cells at 10 uM after 48 hrs; format: functional
HT-29 = experiment: Growth inhibition of human HT-29 cells at 10 uM after 48 hrs; format: functional
KM12 = experiment: Growth inhibition of human KM12 cells at 10 uM after 48 hrs; format: functional
CAKI-1 = experiment: Growth inhibition of human CAKI-1 cells at 10 uM after 48 hrs; format: functional
OVCAR-5 = experiment: Growth inhibition of human OVCAR5 cells at 10 uM after 48 hrs; format: functional
SW-620 = experiment: Growth inhibition of human SW620 cells at 10 uM after 48 hrs; format: functional
MDA-MB-435 = experiment: Growth inhibition of human MDA-MB-435 cells at 10 uM after 48 hrs; format: functional
MCF7 = experiment: Growth inhibition of human MCF7 cells at 10 uM after 48 hrs; format: functional
Pseudomonas aeruginosa = experiment: Antimicrobial activity against Pseudomonas aeruginosa assessed as inhibition zone at 200 ug/disk after 24 hrs by disc-diffusion method; format: functional; settings: read-out: IZ
MOLT-4 = experiment: Growth inhibition of human MOLT4 cells at 10 uM after 48 hrs; format: functional

COc1cc2nc(Sc3sc(N)nc3C)n(Cc3ccccc3)c(=O)c2cc1OC
active: Activity (Staphylococcus aureus [1]) | Activity (Bacillus subtilis [2])
inactive: growth inhibition (GI) (NCI-H522) | growth inhibition (GI) (UACC-257) | growth inhibition (GI) (HCT-15) | growth inhibition (GI) (LOX IMVI) | growth inhibition (GI) (HCT-116) | growth inhibition (GI) (A498) | growth inhibition (GI) (SN12C) | growth inhibition (GI) (HCC 2998) | growth inhibition (GI) (OVCAR-8) | growth inhibition (GI) (NCI-H23) | growth inhibition (GI) (HL-60(TB)) | growth inhibition (GI) (U-251) | growth inhibition (GI) (SF-268) | growth inhibition (GI) (SF-295) | growth inhibition (GI) (Malme-3M) | growth inhibition (GI) (M14) | growth inhibition (GI) (SNB-75) | growth inhibition (GI) (HOP-92) | growth inhibition (GI) (786-0) | growth inhibition (GI) (COLO 205) | growth inhibition (GI) (CCRF-CEM) | growth inhibition (GI) (TK-10) | growth inhibition (GI) (SR) | growth inhibition (GI) (OVCAR-4) | growth inhibition (GI) (UACC-62) | growth inhibition (GI) (K562) | growth inhibition (GI) (OVCAR-3) | growth inhibition (GI) (UO-31) | growth inhibition (GI) (Hs-578T) | growth inhibition (GI) (MDA-MB-231) | growth inhibition (GI) (NCI-H226) | growth inhibition (GI) (T47D) | growth inhibition (GI) (SF-539) | growth inhibition (GI) (A549) | growth inhibition (GI) (BT-549) | growth inhibition (GI) (NCI/ADR-RES) | growth inhibition (GI) (PC-3) | growth inhibition (GI) (ACHN) | growth inhibition (GI) (SK-MEL-5) | growth inhibition (GI) (MDA-MB-468) | growth inhibition (GI) (NCI-H460) | growth inhibition (GI) (RPMI-8226) | growth inhibition (GI) (RXF 393) | growth inhibition (GI) (SNB-19) | growth inhibition (GI) (HT-29) | growth inhibition (GI) (KM12) | growth inhibition (GI) (CAKI-1) | growth inhibition (GI) (OVCAR-5) | growth inhibition (GI) (SW-620) | growth inhibition (GI) (MDA-MB-435) | growth inhibition (GI) (MCF7) | growth inhibition (GI) (MOLT-4)
6 µM: IC50 (Dihydrofolate reductase)
20 mm: zone of inhibition at 200 µg/disc (Staphylococcus aureus [4])
8 mm: zone of inhibition at 200 µg/disc (Escherichia coli) | zone of inhibition at 200 µg/disc (Candida albicans) | zone of inhibition at 200 µg/disc (Pseudomonas aeruginosa)
24 mm: zone of inhibition at 200 µg/disc (Bacillus subtilis [3])

Cc1ccc(-n2c(Sc3sc(N)nc3C)nc3ccc(Cl)cc3c2=O)cc1
8 mm: zone of inhibition at 200 µg/disc (Escherichia coli) | zone of inhibition at 200 µg/disc (Candida albicans) | zone of inhibition at 200 µg/disc (Pseudomonas aeruginosa)
5 µM: IC50 (Dihydrofolate reductase)
18 mm: zone of inhibition at 200 µg/disc (Staphylococcus aureus [4])
inactive: growth inhibition (GI) (NCI-H522) | growth inhibition (GI) (UACC-257) | growth inhibition (GI) (HCT-15) | growth inhibition (GI) (LOX IMVI) | growth inhibition (GI) (HCT-116) | growth inhibition (GI) (A498) | growth inhibition (GI) (SN12C) | growth inhibition (GI) (HCC 2998) | growth inhibition (GI) (OVCAR-8) | growth inhibition (GI) (NCI-H23) | growth inhibition (GI) (HL-60(TB)) | growth inhibition (GI) (U-251) | growth inhibition (GI) (SF-268) | growth inhibition (GI) (SF-295) | growth inhibition (GI) (Malme-3M) | growth inhibition (GI) (M14) | growth inhibition (GI) (SNB-75) | growth inhibition (GI) (HOP-92) | growth inhibition (GI) (786-0) | growth inhibition (GI) (COLO 205) | growth inhibition (GI) (CCRF-CEM) | growth inhibition (GI) (TK-10) | growth inhibition (GI) (SR) | growth inhibition (GI) (OVCAR-4) | growth inhibition (GI) (UACC-62) | growth inhibition (GI) (K562) | growth inhibition (GI) (OVCAR-3) | growth inhibition (GI) (UO-31) | growth inhibition (GI) (Hs-578T) | growth inhibition (GI) (MDA-MB-231) | growth inhibition (GI) (NCI-H226) | growth inhibition (GI) (T47D) | growth inhibition (GI) (SF-539) | growth inhibition (GI) (A549) | growth inhibition (GI) (BT-549) | growth inhibition (GI) (NCI/ADR-RES) | growth inhibition (GI) (PC-3) | growth inhibition (GI) (ACHN) | growth inhibition (GI) (SK-MEL-5) | growth inhibition (GI) (MDA-MB-468) | growth inhibition (GI) (NCI-H460) | growth inhibition (GI) (RPMI-8226) | growth inhibition (GI) (RXF 393) | growth inhibition (GI) (SNB-19) | growth inhibition (GI) (HT-29) | growth inhibition (GI) (KM12) | growth inhibition (GI) (CAKI-1) | growth inhibition (GI) (OVCAR-5) | growth inhibition (GI) (SW-620) | growth inhibition (GI) (MDA-MB-435) | growth inhibition (GI) (MCF7) | growth inhibition (GI) (MOLT-4)
16 mm: zone of inhibition at 200 µg/disc (Bacillus subtilis [3])
active: Activity (Staphylococcus aureus [1]) | Activity (Bacillus subtilis [2])
